From US20080188518A1 (priority 2003, published 2008)

Biological target: α7 nAChR subtype (Rattus norvegicus, UniProt Q05941)
Format: binding
Conditions: read-out: KD of radioligand (saturation curves, one site model)

α7 nAChR subtype, sequence (Q05941 23-502 limits assumed): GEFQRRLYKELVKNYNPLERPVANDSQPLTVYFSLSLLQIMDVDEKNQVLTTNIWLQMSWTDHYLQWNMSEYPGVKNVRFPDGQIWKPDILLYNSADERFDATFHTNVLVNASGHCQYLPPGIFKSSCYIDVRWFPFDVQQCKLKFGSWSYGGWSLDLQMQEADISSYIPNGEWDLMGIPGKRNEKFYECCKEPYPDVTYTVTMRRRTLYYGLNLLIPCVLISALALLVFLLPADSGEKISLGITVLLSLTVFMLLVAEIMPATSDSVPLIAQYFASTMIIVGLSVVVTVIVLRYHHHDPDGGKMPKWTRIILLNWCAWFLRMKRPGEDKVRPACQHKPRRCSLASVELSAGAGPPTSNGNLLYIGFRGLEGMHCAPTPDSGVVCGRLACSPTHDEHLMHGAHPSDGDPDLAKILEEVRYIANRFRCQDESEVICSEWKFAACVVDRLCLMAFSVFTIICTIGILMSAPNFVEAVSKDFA

125I-α-Bungarotoxin [[^125I]-α-BTX] was tested, and the Kd was 1.67 nM.
